Experimental data taken from patent US10174013B2, “Benzimidazole derivatives as kinase inhibitors” (SELVITA S.A., priority 2012, dated 2019).
Where two headings read alike, the source gives them in different places.

Legend:
HEL92 cells = experiment: Growth inhibition, MTS assay, HEL92; format: cell-based, Human; conditions: MTS cell viability, read-out: HEL92 ED50
Text: (§1) The following cell lines, were obtained and used in tests as outlined below: • Human myelomonocytic, biphenotypic leukemia MV4-11 cells (harboring a Flt3-ITD mutation); • Human Acute Myeloid Leukemia MOLM16 cells; • Human Acute Myeloid Leukemia MOLM13 cells (harboring a Flt3-ITD mutation); • Human Myeloid Leukemia KG-1 cells; • Human erythroleukemia HEL92 cells; • Human mantle cell lymphoma Jeko-1 cells; • Human hepatocellular carcinoma HepG2 cells; and • Human colon adenocarcinoma SW-480 cells.
(§2) The assays were carried out according to the following protocol, which is described as an example for the MV4-11 cells:
(§3) Ten thousand MV4-11 cells were inoculated into each well of a 96-well microplate (manufactured by Corning Corp.) using Iscove's MDM medium (culture medium) containing 10% fetal calf serum (FCS). The same day, a dimethyl sulfoxide (DMSO) solution of each test compound prepared in a concentration of 10 mmol/L was further diluted with DMSO to the desired concentrations (0.1, 0.5, 1, 2.5, 5 and 10 micromol/L), and the diluted solution was added to each well. The individual wells were further cultured in 5% carbon dioxide at 37° C. for 72 hours. […] Briefly, 10 μl MTS (3-(4,5-Dimethyl-2-thiazolyl)-5-(carboxymethoxyphenyl)-2-(4-sulfophenyl)-2H-tetrazolium was added to each well, and culturing was performed in 5% carbon dioxide at 37° C. for 2 hours. After this incubation and using a microplate spectrophotometer (Synergy 2 multi-mode microplate reader (BioTek)), the absorbance of each well was measured at 490 nm. The value for cells not incubated with a test compound was designated as 100%. By comparing these values with the absorbance difference obtained at the well in which each test compound was added, the cell viability (% viability) after treatment with the test compound was calculated.

DYRK1 = DYRK1 (Homo sapiens (Human), UniProt Q13627); experiment: ADP-Glo Kinase Assay, DYRK1; format: biochemical; conditions: 1 μM compound; for inhibition at 1 µM: read-out: DYRK1A % INH (1 μM)
Method: (§4) Compounds of the present invention were tested for their inhibitory activity against Pim-1, Pim-2, Pim-3, Flt3 wt, Flt3 ITD, CDK2/E and DYRK1. The testing of the compounds was carried out using the ADP-Glo™ Kinase Assay from Promega Corporation (Madison, Wis., USA).
(§5) The ADP-Glo™ Kinase Assay is a luminescent ADP detection assay to measure kinase activity by quantifying the amount of ADP produced during a kinase reaction. The kinase assay is performed in kinase assay buffer (5 mM MOPS, pH 7.5, 5 mM MgCl2, 0.4 mM EDTA, 1.5 mM DTT). Test samples initially dissolved in DMSO at 10 mM were diluted with the assay buffer to 1000 nM. A 30 μL volume/well of a mixture of substrates containing ATP (final ATP concentration in each kinase assay was equal to its apparent ATP Km).
(§6) The assay was performed in two steps: first, after the kinase reaction, an equal volume of ADP-Glo™ Reagent was added to terminate the kinase reaction and deplete the remaining ATP. Second, the Kinase Detection Reagent was added to simultaneously convert ADP to ATP and allowed the newly synthesized ATP to be measured using a luciferase/luciferin reaction. The luminescent signal generated was proportional to the ADP concentration produced and was correlated with kinase activity. A microplate spectrophotometer (Synergy 2 multi-mode microplate reader [BioTek]) was used for detecting the luminescence. The data was normalized and the percent of inhibition was obtained according to the following equation: […]

Pim-1 = Pim-1 (Homo sapiens (Human), UniProt P11309); experiment: ADP-Glo Kinase Assay, Pim-1; format: biochemical; conditions: 1 μM compound; for inhibition at 1 µM: read-out: Pim-1 % INH (1 μM)
Method: as §4, §5, §6

MV4-11 cells = experiment: Growth inhibition, MTS assay, MV4-11; format: cell-based, Human; conditions: MTS cell viability, read-out: MV4-11 ED50
Text: as §1, §2, §3

HepG2 cells = experiment: Growth inhibition, MTS assay, HepG2; format: cell-based, Human; conditions: MTS cell viability, read-out: HepG2 ED50
Text: as §1, §2, §3

FLT3wt = FLT3wt (Homo sapiens (Human), UniProt P36888); experiment: ADP-Glo Kinase Assay, Flt3 wt; format: biochemical; conditions: 1 μM compound
Method: as §4, §5, §6

Chain of Pim-1 (P11309 whole entry): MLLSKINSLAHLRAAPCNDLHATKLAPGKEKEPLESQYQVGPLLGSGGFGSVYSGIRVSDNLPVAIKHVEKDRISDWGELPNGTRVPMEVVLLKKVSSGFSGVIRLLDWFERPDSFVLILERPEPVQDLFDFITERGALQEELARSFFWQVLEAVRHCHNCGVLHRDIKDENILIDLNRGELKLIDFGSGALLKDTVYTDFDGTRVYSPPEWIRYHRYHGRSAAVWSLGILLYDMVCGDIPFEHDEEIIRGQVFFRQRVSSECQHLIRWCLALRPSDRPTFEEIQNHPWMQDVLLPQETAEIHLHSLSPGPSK
Chain of FLT3wt (P36888 27-993): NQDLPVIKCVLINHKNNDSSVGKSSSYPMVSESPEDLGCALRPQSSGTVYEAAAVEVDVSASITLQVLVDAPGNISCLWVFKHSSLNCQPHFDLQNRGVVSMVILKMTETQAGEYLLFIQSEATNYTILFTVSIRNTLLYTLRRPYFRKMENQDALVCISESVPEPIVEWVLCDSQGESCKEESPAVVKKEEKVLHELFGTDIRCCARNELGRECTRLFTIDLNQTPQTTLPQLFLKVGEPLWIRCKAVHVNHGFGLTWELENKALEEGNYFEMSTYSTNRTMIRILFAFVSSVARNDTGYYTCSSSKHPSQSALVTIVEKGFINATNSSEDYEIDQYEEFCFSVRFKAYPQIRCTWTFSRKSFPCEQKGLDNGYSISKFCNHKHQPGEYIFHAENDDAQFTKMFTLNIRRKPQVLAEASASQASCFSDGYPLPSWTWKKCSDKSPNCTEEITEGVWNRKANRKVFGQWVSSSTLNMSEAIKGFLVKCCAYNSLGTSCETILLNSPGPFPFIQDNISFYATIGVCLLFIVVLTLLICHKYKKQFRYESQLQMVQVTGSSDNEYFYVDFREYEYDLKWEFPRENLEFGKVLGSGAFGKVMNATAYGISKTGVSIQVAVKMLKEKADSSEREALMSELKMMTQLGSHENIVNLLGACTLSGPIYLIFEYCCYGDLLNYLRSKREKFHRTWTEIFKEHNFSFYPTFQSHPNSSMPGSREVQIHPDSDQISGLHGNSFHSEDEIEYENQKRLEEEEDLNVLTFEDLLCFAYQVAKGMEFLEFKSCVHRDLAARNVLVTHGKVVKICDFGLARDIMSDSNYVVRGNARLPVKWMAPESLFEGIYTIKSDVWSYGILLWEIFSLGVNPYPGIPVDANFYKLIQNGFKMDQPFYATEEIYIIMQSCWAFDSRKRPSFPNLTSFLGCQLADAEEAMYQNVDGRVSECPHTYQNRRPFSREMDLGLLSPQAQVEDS

Molecule	IC50 (HEL92 cells; 72 hours)	DYRK1A % INH (1 μM) (DYRK1)	Pim-1 % INH (1 μM) (Pim-1)	IC50 (MV4-11 cells; 72 hours)	IC50 (HepG2 cells; 72 hours)	inhibition at 1 µM (Pim-1)	other results
5-bromo-6-methyl-4-nitro-2-(piperazin-1-yl)-1-(propan-2-yl)-1H-1,3-benzodiazole [Example 4B]	4100 nM	51%	>95%	1200 nM	1800 nM		
CC(C)n1c(N[C@@H]2CCNC2)nc2c([N+](=O)[O-])c(Br)c(Br)cc21 [Example 1BF]	7600 nM			2000 nM	2300 nM		
CC(C)n1c(N[C@@H]2CCCNC2)nc2c([N+](=O)[O-])c(Br)c(Br)cc21 [Example 1CA]	9700 nM	64%	77%	2600 nM	1800 nM		
O=[N+]([O-])c1c(Br)c(Br)cc2c1nc(N[C@@H]1CCNC1)n2CC1CC1 [Example 1CJ]	5500 nM			5500 nM	5300 nM		
CC(C)n1c(N2CCNCC2)nc2c([N+](=O)[O-])c(Br)c(F)cc21 [Example 1CL]	2400 nM	45%	82%	1000 nM	1500 nM		
CCCn1c(N2CC[C@@H](N)C2)nc2c([N+](=O)[O-])c(Br)c(Br)cc21 [Example 1CM]	5200 nM	95%	>95%	800 nM	2600 nM		Flt3wt % INH (1 μM) (FLT3wt): 26%
CCn1c(N2CCNCC2)nc2c([N+](=O)[O-])c(Cl)c(Cl)cc21 [Example 1CN]	9400 nM	27%	76%	3300 nM	4500 nM		
CC(C)n1c(NC2CNC2)nc2c([N+](=O)[O-])c(Br)c(Br)cc21 [Example 1CR]	8700 nM	70%	>95%	1100 nM	1900 nM		Flt3wt % INH (1 μM) (FLT3wt): 44%
CC(C)n1c(N2CC(N)C2)nc2c([N+](=O)[O-])c(Br)c(Br)cc21 [Example 1CX]						> 95%	inhibition at 1 µM (FLT3wt; read-out: Flt3wt % INH (1 μM)): 44%; IC50 (HEL92 cells; Homo sapiens, 72 h): 4100 nM; inhibition at 1 µM (DYRK1): 73%; IC50 (MV4-11 cells; Homo sapiens, MV4-11, 72 h): 1200 nM; IC50 (HepG2 cells; Homo sapiens, HepG2, 72 h): 3100 nM
CC(C)n1c(N2CC[C@@H](N)C2)nc2c([N+](=O)[O-])c(Br)c(F)cc21 [Example 1CY]	8900 nM		>95%	2100 nM	2800 nM		Flt3wt % INH (1 μM) (FLT3wt): <5%
CCn1c(N2CCNCC2C)nc2c([N+](=O)[O-])c(Cl)c(Cl)cc21 (stereo not drawn) [Example 1DA]	1100 nM	36%	91%	500 nM	900 nM		
N[C@@H]1CCN(c2nc3c([N+](=O)[O-])c(Br)c(Br)cc3n2CCCO)C1 [Example 1DF]		55%	>95%	2000 nM	3700 nM		Flt3wt % INH (1 μM) (FLT3wt): 18%
O=[N+]([O-])c1c(Br)c(Br)cc2c1nc(N1CCNCC1)n2C1CCC1 [Example 1DG]	1800 nM	92%	>95%	200 nM	400 nM		
O=[N+]([O-])c1c(Br)c(Br)cc2c1nc(N1CCNCC1)n2CCO [Example 1DJ]						95%	IC50 (HEL92 cells; Homo sapiens, 72 h): 6700 nM; inhibition at 1 µM (DYRK1): > 95%; IC50 (MV4-11 cells; Homo sapiens, MV4-11, 72 h): 600 nM; IC50 (HepG2 cells; Homo sapiens, HepG2, 72 h): 2100 nM
CC(C)n1c(NC2CCNCC2)nc2c([N+](=O)[O-])c(Br)c(Br)cc21 [Example 1DK]	5800 nM	25%	>95%	5500 nM	5700 nM		
CC(C)n1c(N2CCNCC2CO)nc2c([N+](=O)[O-])c(Br)c(Br)cc21 (stereo not drawn) [Example 1DN]	4500 nM	38%	>95%	500 nM	900 nM		Flt3wt % INH (1 μM) (FLT3wt): 55%
CCn1c(NC2CCC(N)CC2)nc2c([N+](=O)[O-])c(Br)c(Br)cc21 (stereo not drawn) [Example 1DO]			93%	4300 nM	2200 nM		
CCn1c(N2CCC[C@H](NC)C2)nc2c([N+](=O)[O-])c(Br)c(Br)cc21 [Example 1DZ]						> 95%	
CC[C@H]1CNCCN1c1nc2c([N+](=O)[O-])c(Br)c(Br)cc2n1C(C)C [Example 1EA]						> 95%	
COC1CN(c2nc3c([N+](=O)[O-])c(Br)c(Br)cc3n2C(C)C)CC1N (stereo not drawn) [Example 1EB]						> 95%	
Cc1c(Br)cc2c(nc(N3CCNCC3)n2C(C)C)c1[N+](=O)[O-] [Example 4A, 5-methyl-6-bromo-4-nitro-2-(piperazin-1-yl)-1-(propan-2-yl)-1H-1,3-benzodiazole]						81%	IC50 (HEL92 cells; Homo sapiens, 72 h): 8700 nM; IC50 (MV4-11 cells; Homo sapiens, MV4-11, 72 h): 1000 nM
N#Cc1c(Br)c(Br)cc2c1nc(N1CC[C@@H](N)C1)n2[C@H]1CCNC1 [Example 8G, 2-[(3R)-3-aminopyrrolidin-1-yl]-5,6-dibromo-1-[(3S)-pyrrolidin-3-yl]-1H-1,3-benzodiazole-4-carbonitrile]						> 95%	
CC(C)n1c(N2CCNC(CO)C2)nc2c([N+](=O)[O-])c(Br)c(Br)cc21 (stereo not drawn) [Example 22AD, {4-[5,6-dibromo-4-nitro-1-(propan-2-yl)-1H-1,3-benzodiazol-2-yl]piperazin-2-yl}methanol]						> 95%	IC50 (HEL92 cells; Homo sapiens, 72 h): 6200 nM; inhibition at 1 µM (DYRK1): 31%; IC50 (MV4-11 cells; Homo sapiens, MV4-11, 72 h): 700 nM; IC50 (HepG2 cells; Homo sapiens, HepG2, 72 h): 1200 nM
O=[N+]([O-])c1c(Br)c(Br)cc2c1nc(C1CCNCC1)n2CC1CCNCC1 [Example 27A, 5,6-dibromo-4-nitro-2-(piperidin-4-yl)-1-(piperidin-4-ylmethyl)-1H-1,3-benzodiazole]						56%	
